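The compound was tested at five concentrations on cells cultured in 96-well plates, with a 48-hour exposure period. The concentration for 50% growth inhibition is given as GI50. TGI marks complete inhibition of growth.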
What was measured:
Assay in all cases: NCI-60 cell line screen, 48 h
[1] = test system: RXF 393 renal
[2] = test system: MCF7 breast
[3] = test system: HCT-116 colon
[4] = test system: HOP-92 NSCLC
[5] = test system: DU-145 prostate
[6] = test system: HCC-2998 colon
[7] = test system: A498 renal
[8] = test system: TK-10 renal
[9] = test system: ACHN renal
[10] = test system: UACC-257 melanoma
[11] = test system: SN12C renal
[12] = test system: OVCAR-8 ovarian
[13] = test system: EKVX NSCLC
[14] = test system: MALME-3M melanoma
[15] = test system: CCRF-CEM leukemia
[16] = test system: U251 CNS
[17] = test system: SR leukemia
[18] = test system: SK-MEL-28 melanoma
[19] = test system: BT-549 breast
[20] = test system: RPMI-8226 leukemia
[21] = test system: MDA-MB-435
[22] = test system: IGROV1 ovarian
[23] = test system: CAKI-1 renal
[24] = test system: A549 NSCLC
[25] = test system: SNB-19 CNS
[26] = test system: K-562 leukemia
[27] = test system: SF-295 CNS
[28] = test system: MOLT-4 leukemia
[29] = test system: OVCAR-5 ovarian

CN(C)CCCOc1c2ccc(Cl)cc2nc2c1oc1ccccc12 was tested, and the GI50 [1] was 1370 nM, the TGI [1] was 3710 nM and the GI50 [2] was 1170 nM. The TGI [2] was 5480 nM, the GI50 [3] was 437 nM and the TGI [3] was 10100 nM. For the same molecule, the GI50 [4] was 584 nM, the TGI [4] was 3590 nM and the GI50 [5] was 2260 nM. For the same molecule, the TGI [5] was 14000 nM, the GI50 [6] was 1030 nM and the TGI [6] was 2530 nM. The GI50 [7] was 3140 nM, the TGI [7] was 8920 nM and the GI50 [8] was 2960 nM. The TGI [8] was 7620 nM, the GI50 [9] was 623 nM and the TGI [9] was 12500 nM. It also gave a GI50 [10] of 1850 nM, a TGI [10] of 3790 nM and a GI50 [11] of 1020 nM. The TGI [11] was 11200 nM, the GI50 [12] was 1370 nM and the TGI [12] was 10900 nM. For the same molecule, the GI50 [13] was 2640 nM, the TGI [13] was 10300 nM and the GI50 [14] was 1730 nM. It also gave a TGI [14] of 3820 nM, a GI50 [15] of 2100 nM and a TGI [15] of 11100 nM. It also gave a GI50 [16] of 1660 nM, a TGI [16] of 10700 nM and a GI50 [17] of 697 nM. For the same molecule, the TGI [17] was 6720 nM, the GI50 [18] was 1810 nM and the TGI [18] was 3430 nM. The GI50 [19] was 2080 nM, the TGI [19] was 7230 nM and the GI50 [20] was 2070 nM. The TGI [20] was 7520 nM, the GI50 [21] was 1550 nM and the TGI [21] was 3090 nM. For the same molecule, the GI50 [22] was 2140 nM, the TGI [22] was 12000 nM and the GI50 [23] was 888 nM. It also gave a TGI [23] of 10400 nM, a GI50 [24] of 1550 nM and a TGI [24] of 11200 nM. For the same molecule, the GI50 [25] was 2370 nM, the TGI [25] was 11900 nM and the GI50 [26] was 620 nM. For the same molecule, the TGI [26] was 13900 nM, the GI50 [27] was 2180 nM and the TGI [27] was 10800 nM. It also gave a GI50 [28] of 497 nM, a TGI [28] of 10500 nM and a GI50 [29] of 2090 nM.

— PubChem BioAssay (NCI)
